PubChem BioAssay (NCI)
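Where inhibition never reached the appropriate level, the endpoint shown equals the highest concentration tested. Otherwise, values were interpolated linearly from a five-concentration, 48-hour dose response in 96-well plates. Here, GI50 denotes the concentration required for 50% inhibition of growth. At the TGI there is no net growth.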

Assays:
Assay in all cases: DTP human tumour cell line panel, 48 h; in the data active = GI50 below about 0.43 µM; inactive = the rest
A498 renal = system: A498 renal
HCT-116 colon = system: HCT-116 colon
U251 CNS = system: U251 CNS
SF-539 CNS = system: SF-539 CNS
OVCAR-4 ovarian = system: OVCAR-4 ovarian
IGROV1 ovarian = system: IGROV1 ovarian
COLO 205 colon = system: COLO 205 colon
OVCAR-3 ovarian = system: OVCAR-3 ovarian
XF 498 CNS = system: XF 498 CNS
UO-31 renal = system: UO-31 renal
HOP-18 NSCLC = system: HOP-18 NSCLC
SK-MEL-28 melanoma = system: SK-MEL-28 melanoma
NCI-H522 lung = system: NCI-H522 lung
LXFL 529 NSCLC = system: LXFL 529 NSCLC
KM12 colon = system: KM12 colon
M14 melanoma = system: M14 melanoma
SF-295 CNS = system: SF-295 CNS
UACC-257 melanoma = system: UACC-257 melanoma
LOX IMVI melanoma = system: LOX IMVI melanoma
NCI-H23 lung = system: NCI-H23 lung
CCRF-CEM leukemia = system: CCRF-CEM leukemia
SK-MEL-2 melanoma = system: SK-MEL-2 melanoma
SN12C renal = system: SN12C renal
SNB-75 CNS = system: SNB-75 CNS
OVCAR-8 ovarian = system: OVCAR-8 ovarian
DLD-1 colon = system: DLD-1 colon
DMS 114 small cell lung = system: DMS 114 small cell lung
RXF 393 renal = system: RXF 393 renal
SNB-78 CNS = system: SNB-78 CNS
M19-MEL melanoma = system: M19-MEL melanoma
786-0 renal = system: 786-0 renal
NCI-H226 lung = system: NCI-H226 lung
SF-268 CNS = system: SF-268 CNS
HT29 colon = system: HT29 colon
UACC-62 melanoma = system: UACC-62 melanoma
HOP-92 NSCLC = system: HOP-92 NSCLC
MOLT-4 leukemia = system: MOLT-4 leukemia
SNB-19 CNS = system: SNB-19 CNS
SW-620 colon = system: SW-620 colon
MALME-3M melanoma = system: MALME-3M melanoma
ACHN renal = system: ACHN renal
NCI-H460 lung = system: NCI-H460 lung
CAKI-1 renal = system: CAKI-1 renal
KM20L2 colon = system: KM20L2 colon
SK-MEL-5 melanoma = system: SK-MEL-5 melanoma
OVCAR-5 ovarian = system: OVCAR-5 ovarian
A549 NSCLC = system: A549 NSCLC
K-562 leukemia = system: K-562 leukemia
DMS 273 small cell lung = system: DMS 273 small cell lung
RXF-631 renal = system: RXF-631 renal
TK-10 renal = system: TK-10 renal
RPMI-8226 leukemia = system: RPMI-8226 leukemia
SR leukemia = system: SR leukemia
HL-60(TB) leukemia = system: HL-60(TB) leukemia
SK-OV-3 ovarian = system: SK-OV-3 ovarian
HOP-62 NSCLC = system: HOP-62 NSCLC
EKVX NSCLC = system: EKVX NSCLC
HCT-15 colon = system: HCT-15 colon

CC(=O)[O][Ga]([Cl])[O]C(C)=O
> 100 µM: TGI (A498 renal) | TGI (HCT-116 colon) | TGI (U251 CNS) | TGI (SF-539 CNS) | TGI (OVCAR-4 ovarian) | TGI (IGROV1 ovarian) | TGI (COLO 205 colon) | TGI (OVCAR-3 ovarian) | TGI (XF 498 CNS) | TGI (UO-31 renal) | TGI (HOP-18 NSCLC) | TGI (SK-MEL-28 melanoma) | TGI (NCI-H522 lung) | TGI (LXFL 529 NSCLC) | TGI (KM12 colon) | TGI (M14 melanoma) | TGI (SF-295 CNS) | TGI (UACC-257 melanoma) | TGI (LOX IMVI melanoma) | TGI (NCI-H23 lung) | TGI (CCRF-CEM leukemia) | TGI (SK-MEL-2 melanoma) | TGI (SN12C renal) | TGI (SNB-75 CNS) | TGI (OVCAR-8 ovarian) | TGI (DLD-1 colon) | TGI (DMS 114 small cell lung) | TGI (RXF 393 renal) | TGI (SNB-78 CNS) | TGI (M19-MEL melanoma) | TGI (786-0 renal) | TGI (NCI-H226 lung) | TGI (SF-268 CNS) | TGI (HT29 colon) | TGI (UACC-62 melanoma) | TGI (HOP-92 NSCLC) | TGI (MOLT-4 leukemia) | TGI (SNB-19 CNS) | TGI (SW-620 colon) | TGI (MALME-3M melanoma) | TGI (ACHN renal) | TGI (NCI-H460 lung) | TGI (CAKI-1 renal) | TGI (KM20L2 colon) | TGI (SK-MEL-5 melanoma) | TGI (OVCAR-5 ovarian) | TGI (A549 NSCLC) | TGI (K-562 leukemia) | TGI (DMS 273 small cell lung) | TGI (RXF-631 renal) | TGI (TK-10 renal) | TGI (RPMI-8226 leukemia) | TGI (SR leukemia) | TGI (HL-60(TB) leukemia) | TGI (SK-OV-3 ovarian)
inactive: GI50 (A498 renal) > 100 µM | GI50 (HCT-116 colon) > 100 µM | GI50 (U251 CNS) > 100 µM | GI50 (SF-539 CNS) > 100 µM | GI50 (OVCAR-4 ovarian) > 100 µM | GI50 (IGROV1 ovarian) > 100 µM | GI50 (COLO 205 colon) > 100 µM | GI50 (OVCAR-3 ovarian) > 100 µM | GI50 (XF 498 CNS) > 100 µM | GI50 (UO-31 renal) > 100 µM | GI50 (HOP-18 NSCLC) > 100 µM | GI50 (SK-MEL-28 melanoma) > 100 µM | GI50 (NCI-H522 lung) > 100 µM | GI50 (LXFL 529 NSCLC) > 100 µM | GI50 (KM12 colon) > 100 µM | GI50 (M14 melanoma) > 100 µM | GI50 (SF-295 CNS) > 100 µM | GI50 (UACC-257 melanoma) > 100 µM | GI50 (LOX IMVI melanoma) > 100 µM | GI50 (NCI-H23 lung) > 100 µM | GI50 (CCRF-CEM leukemia) > 100 µM | GI50 (SK-MEL-2 melanoma) > 100 µM | GI50 (SN12C renal) > 100 µM | GI50 (SNB-75 CNS) > 100 µM | GI50 (OVCAR-8 ovarian) > 100 µM | GI50 (DLD-1 colon) > 100 µM | GI50 (DMS 114 small cell lung) > 100 µM | GI50 (RXF 393 renal) > 100 µM | GI50 (SNB-78 CNS) > 100 µM | GI50 (M19-MEL melanoma) 65.6 µM | GI50 (786-0 renal) > 100 µM | GI50 (NCI-H226 lung) > 100 µM | GI50 (SF-268 CNS) > 100 µM | GI50 (HT29 colon) > 100 µM | GI50 (UACC-62 melanoma) > 100 µM | GI50 (HOP-92 NSCLC) > 100 µM | GI50 (MOLT-4 leukemia) > 100 µM | GI50 (SNB-19 CNS) > 100 µM | GI50 (SW-620 colon) > 100 µM | GI50 (MALME-3M melanoma) > 100 µM | GI50 (ACHN renal) > 100 µM | GI50 (NCI-H460 lung) > 100 µM | GI50 (CAKI-1 renal) > 100 µM | GI50 (KM20L2 colon) > 100 µM | GI50 (SK-MEL-5 melanoma) > 100 µM | GI50 (OVCAR-5 ovarian) > 100 µM | GI50 (A549 NSCLC) > 100 µM | GI50 (K-562 leukemia) > 100 µM | GI50 (DMS 273 small cell lung) > 100 µM | GI50 (RXF-631 renal) > 100 µM | GI50 (TK-10 renal) > 100 µM | GI50 (RPMI-8226 leukemia) > 100 µM | GI50 (SR leukemia) > 100 µM | GI50 (HL-60(TB) leukemia) > 100 µM | GI50 (SK-OV-3 ovarian) > 100 µM

CCOC(=O)C1(C/C=C(/C)Cl)CCCC1=O (stereo not given)
45.7 µM: TGI (SR leukemia)
> 100 µM: TGI (A498 renal) | TGI (HCT-116 colon) | TGI (U251 CNS) | TGI (SF-539 CNS) | TGI (OVCAR-4 ovarian) | TGI (IGROV1 ovarian) | TGI (COLO 205 colon) | TGI (HOP-62 NSCLC) | TGI (OVCAR-3 ovarian) | TGI (XF 498 CNS) | TGI (UO-31 renal) | TGI (HOP-18 NSCLC) | TGI (SK-MEL-28 melanoma) | TGI (NCI-H522 lung) | TGI (LXFL 529 NSCLC) | TGI (KM12 colon) | TGI (M14 melanoma) | TGI (SF-295 CNS) | TGI (UACC-257 melanoma) | TGI (LOX IMVI melanoma) | TGI (NCI-H23 lung) | TGI (CCRF-CEM leukemia) | TGI (SK-MEL-2 melanoma) | TGI (SN12C renal) | TGI (SNB-75 CNS) | TGI (OVCAR-8 ovarian) | TGI (DLD-1 colon) | TGI (DMS 114 small cell lung) | TGI (RXF 393 renal) | TGI (M19-MEL melanoma) | TGI (786-0 renal) | TGI (NCI-H226 lung) | TGI (SF-268 CNS) | TGI (HT29 colon) | TGI (UACC-62 melanoma) | TGI (MOLT-4 leukemia) | TGI (SNB-19 CNS) | TGI (MALME-3M melanoma) | TGI (ACHN renal) | TGI (NCI-H460 lung) | TGI (CAKI-1 renal) | TGI (KM20L2 colon) | TGI (EKVX NSCLC) | TGI (SK-MEL-5 melanoma) | TGI (OVCAR-5 ovarian) | TGI (A549 NSCLC) | TGI (K-562 leukemia) | TGI (HCT-15 colon) | TGI (DMS 273 small cell lung) | TGI (RXF-631 renal) | TGI (TK-10 renal) | TGI (HL-60(TB) leukemia) | TGI (SK-OV-3 ovarian)
53.6 µM: TGI (RPMI-8226 leukemia)
